# In patent US11731986B2 (Sanford Burnham Prebys Medical Discovery Institute, priority 2017, dated 2023):
# Target: T1, human LMPTP-A (Homo sapiens, UniProt P24666)
# T1 sequence (P24666 1-158): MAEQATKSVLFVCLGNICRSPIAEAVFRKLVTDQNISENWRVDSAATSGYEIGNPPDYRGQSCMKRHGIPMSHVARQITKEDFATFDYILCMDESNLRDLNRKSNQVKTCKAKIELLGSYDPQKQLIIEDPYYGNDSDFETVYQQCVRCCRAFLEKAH
# Assay: Enzyme Assay of Inhibition of LMPTP-A (phosphatase assay, OMFP or pNPP substrate)
# Format: biochemical
# Conditions: Bis-Tris pH 6.0, 37° C.
# Protocol: Phosphatase assays were performed in buffer containing 50 mM Bis-Tris, pH 6.0, 1 mM DTT and 0.01% Triton X-100 at 37° C. For assays conducted with 3-O-methylfluorescein phosphate (OMFP) as substrate, fluorescence was monitored continuously at λex=485 and λem=525 nm. For assays conducted with para-nitrophenylphosphate (pNPP) as substrate, the reaction was stopped by addition of 2× reaction volume of 1 M NaOH, and absorbance was measured at 405 nm. IC50 values of compounds of Formula (I), (II), (III), or (IV) were determined from plots of inhibitor concentration versus percentage of enzyme activity. For inhibitor selectivity assays, each PTP was incubated with either 0.4 mM OMFP or 5 mM pNPP in the presence of 40 μM compound or DMSO. […] For the inhibitor reversibility assay, 50 nM human LMPTP-A was pre-incubated with 10 μM of compound of Formula (I), (II), (III), or (IV) or DMSO for 5 min. The enzyme was diluted 100× in phosphatase assay buffer containing 0.4 mM OMFP and fluorescence was measured at the indicated time points.
row,SMILES,IC50 [nM]
1,"CNc1cc(-c2ccc3[nH]c(C(=O)NCCCN4CCCCC4)nc3c2)nc2ccncc12 [5-(4-(methylamino)-1,6-naphthyridin-2-yl)-N-(3-(piperidin-1-yl)propyl)-1H-benzo[d]imidazole-2-carboxamide]",1000 to 20000
2,"O=C(NCCCN1CCCCC1)c1cc2ccc(-c3cc(NCCCN4CCCCC4)c4cnccc4n3)cc2[nH]1 [N-(3-(Piperidin-1-yl)propyl)-6-(4-(3-(piperidin-1-yl)propylamino)-1,6-naphthyridin-2-yl)-1H-indole-2-carboxamide]",1000 to 20000
3,"CN1CCC(CNC(=O)c2cc3cc(-c4cc(NCc5ccc(CN6CCCCC6)cc5)c5cnccc5n4)ccc3n2C)CC1 [1-methyl-N-((1-methylpiperidin-4-yl)methyl)-5-(4-(4-(piperidin-1-ylmethyl)benzylamino)-1,6-naphthyridin-2-yl)-1H-indole-2-carboxamide]",≤ 1000
4,"COc1cc(-c2ccc3c(c2)cc(C(=O)NC2CCN(C)CC2)n3C)nc2ccncc12 [5-(4-methoxy-1,6-naphthyridin-2-yl)-1-methyl-N-(1-methylpiperidin-4-yl)-1H-indole-2-carboxamide]",≥ 20000
5,"CCN(CC)C(=O)/C=C/c1ccc(-c2cc(NCCCN3CCCCC3)c3cnccc3n2)s1 [(E)-N,N-Diethyl-3-(5-(4-(3-(piperidin-1-yl)propylamino)-1,6-naphthyridin-2-yl)thiophen-2-yl)acrylamide]",≥ 20000
6,"CN1CCC(NC(=O)CCc2ccc(-c3cc(NC4CCN(C)CC4)c4cnccc4n3)cc2)CC1 [N-(1-Methylpiperidin-4-yl)-3-(4-(4-(1-methylpiperidin-4-ylamino)-1,6-naphthyridin-2-yl)phenyl)propanamide]",≤ 1000
7,"CCN(CC)C(=O)c1nc2cc(-c3cc(NCCCN4CCCCC4)c4cnccc4n3)ccc2[nH]1 [N,N-diethyl-5-(4-((3-(piperidin-1-yl)propyl)amino)-1,6-naphthyridin-2-yl)-1H-benzo[d]imidazole-2-carboxamide]",1000 to 20000
8,"CCN(CC)C(=O)CCOc1ccc(-c2cc(NCCCN3CCCCC3)c3cnccc3n2)cc1 [N,N-diethyl-3-(4-(4-((3-(piperidin-1-yl)propyl)amino)-1,6-naphthyridin-2-yl)phenoxy)propanamide]",≥ 20000
9,"CCN(CC)C(=O)c1ccc(-c2cc(NC3CCNC3)c3cnccc3n2)cc1 (stereo not drawn) [N,N-diethyl-4-(4-(pyrrolidin-3-ylamino)-1,6-naphthyridin-2-yl)benzamide]",1000 to 20000
10,"O=C(NCCCN1CCCCC1)c1ccc(-c2cc(NC3CCNCC3)c3cnccc3n2)cc1 [N-(3-(Piperidin-1-yl)propyl)-4-(4-(piperidin-4-ylamino)-1,6-naphthyridin-2-yl)benzamide]",1000 to 20000
11,"CN1CCC(NC(=O)c2cc3ccc(-c4cc(NCCCN5CCCCC5)c5cnccc5n4)cc3[nH]2)CC1 [N-(1-Methylpiperidin-4-yl)-6-(4-(3-(piperidin-1-yl)propylamino)-1,6-naphthyridin-2-yl)-1H-indole-2-carboxamide]",1000 to 20000
12,"CCN(CC)C(=O)c1ccc(-c2cc(NCCCN3CCCCC3)nc3ncccc23)cc1 [N,N-diethyl-4-(2-(3-(piperidin-1-yl)propylamino)-1,8-naphthyridin-4-yl)benzamide]",≥ 20000
13,"O=C(NCCCN1CCCCC1)c1nc2cc(-c3cc(NCCCN4CCCCC4)c4cnccc4n3)ccc2[nH]1 [N-(3-(piperidin-1-yl)propyl)-5-(4-((3-(piperidin-1-yl)propyl)amino)-1,6-naphthyridin-2-yl)-1H-benzo[d]imidazole-2-carboxamide]",≤ 1000
14,"CCN(CC)C(=O)c1ccc(-c2cc(NCCN3CCNCC3)c3cnccc3n2)cc1 [N,N-diethyl-4-(4-(2-(piperazin-1-yl)ethylamino)-1,6-naphthyridin-2-yl)benzamide]",1000 to 20000
15,"CCN(CC)C(=O)c1nc2ccc(-c3cc(NCCCN4CCCCC4)c4cnccc4n3)cc2s1 [N,N-Diethyl-6-(4-(3-(piperidin-1-yl)propylamino)-1,6-naphthyridin-2-yl)benzo[d]thiazole-2-carboxamide]",1000 to 20000
16,"CCN(CC)C(=O)c1ccc(-c2cc(Nc3ccc(OC)cc3)c3cnccc3n2)cc1 [N,N-Diethyl-4-(4-(4-methoxyphenylamino)-1,6-naphthyridin-2-yl)benzamide]",1000 to 20000
17,"CN1CCN(CCCNC(=O)c2nc3cc(-c4cc(NCCCN5CCCCC5)c5cnccc5n4)ccc3[nH]2)CC1 [N-(3-(4-methylpiperazin-1-yl)propyl)-5-(4-((3-(piperidin-1-yl)propyl)amino)-1,6-naphthyridin-2-yl)-1H-benzo[d]imidazole-2-carboxamide]",≤ 1000
18,"O=C(NCCCN1CCCCC1)c1ccc(-c2cc(NCCCN3CCCCC3)c3cnccc3n2)cn1 [N-(3-(piperidin-1-yl)propyl)-5-(4-((3-(piperidin-1-yl)propyl)amino)-1,6-naphthyridin-2-yl)picolinamide]",≥ 20000
19,"CCN(CC)C(=O)c1ccc(-c2cc(NCCCN3CCN(S(C)(=O)=O)CC3)c3cnccc3n2)cc1 [N,N-Diethyl-4-(4-((3-(4-(methylsulfonyl)piperazin-1-yl)propyl)amino)-1,6-naphthyridin-2-yl)benzamide]",1000 to 20000
20,"CCN(CC)C(=O)c1ccc(-c2cc(NCCCN3CCCCC3)c3cccnc3n2)cc1 [N,N-diethyl-4-(4-(3-(piperidin-1-yl)propylamino)-1,8-naphthyridin-2-yl)benzamide]",≥ 20000
21,"O=C(NC1CCNCC1)c1cc2ccc(-c3cc(NCCCN4CCCCC4)c4cnccc4n3)cc2[nH]1 [6-(4-(3-(Piperidin-1-yl)propylamino)-1,6-naphthyridin-2-yl)-N-(piperidin-4-yl)-1H-indole-2-carboxamide]",1000 to 20000
22,"CN1CCC(CNC(=O)/C=C/c2ccc(-c3cc(NCCCN4CCCCC4)c4cnccc4n3)cc2)CC1 [(E)-N-((1-Methylpiperidin-4-yl)methyl)-3-(4-(4-(3-(piperidin-1-yl)propylamino)-1,6-naphthyridin-2-yl)phenyl)acrylamide]",≤ 1000
23,"CCN1CCN(C(=O)c2cc3ccc(-c4cc(NCCCN5CCCCC5)c5cnccc5n4)cc3s2)CC1 [(4-ethylpiperazin-1-yl)(6-(4-(3-(piperidin-1-yl)propylamino)-1,6-naphthyridin-2-yl)benzo[b]thiophen-2-yl)methanone]",1000 to 20000
24,"CN1CCC(CNC(=O)c2cc3cc(-c4cc(NC5CCN(C)CC5)c5cnccc5n4)ccc3n2C)CC1 [1-Methyl-5-(4-((1-methylpiperidin-4-yl)amino)-1,6-naphthyridin-2-yl)-N-((1-methylpiperidin-4-yl)methyl)-1H-indole-2-carboxamide]",≤ 1000
25,"CN1CCC(NC(=O)CCOCc2ccc(-c3cc(NCCCN4CCCCC4)c4cnccc4n3)cc2)CC1 [N-(1-Methylpiperidin-4-yl)-3-(4-(4-(3-(piperidin-1-yl)propylamino)-1,6-naphthyridin-2-yl)benzyloxy)propanamide]",≤ 1000
26,"Cn1c(C(=O)NCCc2ccncc2)cc2cc(-c3cc(NCCCN4CCCCC4)c4cnccc4n3)ccc21 [1-methyl-5-(4-((3-(piperidin-1-yl)propyl)amino)-1,6-naphthyridin-2-yl)-N-(2-(pyridin-4-yl)ethyl)-1H-indole-2-carboxamide]",≤ 1000
27,"CCN(CC)C(=O)c1ccc(-c2cc(NC3CCNCC3)c3cnccc3n2)cc1 [N,N-Diethyl-4-(4-(piperidin-4-ylamino)-1,6-naphthyridin-2-yl)benzamide]",1000 to 20000
